# Measurements from ChEMBL document CHEMBL1141473, “Tricyclic HIV integrase inhibitors: potent and orally bioavailable C5-aza analogs” (Bioorg Med Chem Lett, 2008).
# Test system: not listed separately
# Assay: Total clearance in iv dosed dog
# Assay type: ADME, organism-based, Canis lupus familiaris
# Settings: in vivo
row,clearance [mL/min/kg],Structure (SMILES)
1,5,O=C1c2c(c(N3CCCS3(=O)=O)c3cccnc3c2O)CN1Cc1ccc(F)cc1
2,5.67,CN(C)S(=O)(=O)N(C)c1c2c(c(O)c3ncccc13)C(=O)N(Cc1ccc(F)cc1)C2

# Target: not listed separately
# Assay: Inhibition of HIV integrase strand transfer activity
# Set-up: species or system Human immunodeficiency virus
# Settings: not given
row,Structure (SMILES),IC50 [nM]
1,O=C1c2c(c(N3CCCS3(=O)=O)c3cccnc3c2O)CN1Cc1ccc(F)cc1,13
2,O=C1c2c(c(C(=O)N3CCOCC3)c3cccnc3c2O)CN1Cc1ccc(F)cc1,50
3,CN(C)S(=O)(=O)N(C)c1c2c(c(O)c3ncccc13)C(=O)N(Cc1ccc(F)cc1)C2,62
4,Cc1nnc(C(=O)NC(C)(C)c2nc(C(=O)NCc3ccc(F)cc3)c(O)c(=O)n2C)o1,27

# Next, values leading:
row,IC50 [nM],Structure (SMILES)
1,265,CN(C)C(=O)C(=O)N(C)c1c2c(c(O)c3ncccc13)C(=O)N(Cc1ccc(F)cc1)C2
2,100,CC(=O)N(C)c1c2c(c(O)c3ncccc13)C(=O)N(Cc1ccc(F)cc1)C2
3,71,CN(C)C(=O)N(C)c1c2c(c(O)c3ncccc13)C(=O)N(Cc1ccc(F)cc1)C2

# Test system: not listed separately
# Assay: Oral bioavailability in rat
# Assay type: ADME, organism-based
# Settings: in vivo
row,bioavailability [%],Structure (SMILES)
1,4,O=C1c2c(c(N3CCCS3(=O)=O)c3cccnc3c2O)CN1Cc1ccc(F)cc1
2,13,CN(C)S(=O)(=O)N(C)c1c2c(c(O)c3ncccc13)C(=O)N(Cc1ccc(F)cc1)C2

# Test system: not listed separately
# Assay: Total clearance in iv dosed rat
# Assay type: ADME, organism-based
# Settings: in vivo
row,clearance [mL/min/kg],Structure (SMILES)
1,25.5,O=C1c2c(c(N3CCCS3(=O)=O)c3cccnc3c2O)CN1Cc1ccc(F)cc1
2,3.83,CN(C)S(=O)(=O)N(C)c1c2c(c(O)c3ncccc13)C(=O)N(Cc1ccc(F)cc1)C2

# Test system: not listed separately
# Assay: Half life in iv dosed dog
# Assay type: ADME, organism-based, Canis lupus familiaris
# Settings: in vivo
row,half-life [min],Structure (SMILES)
1,48,O=C1c2c(c(N3CCCS3(=O)=O)c3cccnc3c2O)CN1Cc1ccc(F)cc1
2,270,CN(C)S(=O)(=O)N(C)c1c2c(c(O)c3ncccc13)C(=O)N(Cc1ccc(F)cc1)C2

# Test system: not listed separately
# Assay: Oral bioavailability in dog
# Assay type: ADME, organism-based, Canis lupus familiaris
# Settings: in vivo
row,bioavailability [%],Structure (SMILES)
1,8.3,O=C1c2c(c(N3CCCS3(=O)=O)c3cccnc3c2O)CN1Cc1ccc(F)cc1
2,16,CN(C)S(=O)(=O)N(C)c1c2c(c(O)c3ncccc13)C(=O)N(Cc1ccc(F)cc1)C2

# Test system: Human immunodeficiency virus 1
# Assay: Antiviral activity against HIV1 3B in MT2 cells after 5 days
# Assay type: functional, organism-based
# Settings: Human immunodeficiency virus 1, 3B, MT2, 120 h
row,Structure (SMILES),EC50 [nM]
1,O=C1c2c(c(N3CCCS3(=O)=O)c3cccnc3c2O)CN1Cc1ccc(F)cc1,1.4
2,CN(C)S(=O)(=O)N(C)c1c2c(c(O)c3ncccc13)C(=O)N(Cc1ccc(F)cc1)C2,3.1
3,Cc1nnc(C(=O)NC(C)(C)c2nc(C(=O)NCc3ccc(F)cc3)c(O)c(=O)n2C)o1,6

# Other lines, results leading:
row,EC50 [nM],Structure (SMILES)
1,31,CN(C)C(=O)C(=O)N(C)c1c2c(c(O)c3ncccc13)C(=O)N(Cc1ccc(F)cc1)C2
2,47,CC(=O)N(C)c1c2c(c(O)c3ncccc13)C(=O)N(Cc1ccc(F)cc1)C2
3,10,CN(C)C(=O)N(C)c1c2c(c(O)c3ncccc13)C(=O)N(Cc1ccc(F)cc1)C2

# Test system: not listed separately
# Assay: Half life in iv dosed rat
# Assay type: ADME, organism-based
# Settings: in vivo
row,half-life [min],Structure (SMILES)
1,36,O=C1c2c(c(N3CCCS3(=O)=O)c3cccnc3c2O)CN1Cc1ccc(F)cc1
2,54,CN(C)S(=O)(=O)N(C)c1c2c(c(O)c3ncccc13)C(=O)N(Cc1ccc(F)cc1)C2

# Test system: not listed separately
# Assay: Aqueous solubility at pH 7.3
# Assay type: physicochemical
# Settings: not given
row,solubility [µM],Structure (SMILES)
1,2.8,O=C1c2c(c(N3CCCS3(=O)=O)c3cccnc3c2O)CN1Cc1ccc(F)cc1
2,4.5,CN(C)S(=O)(=O)N(C)c1c2c(c(O)c3ncccc13)C(=O)N(Cc1ccc(F)cc1)C2
3,844,CN(C)C(=O)N(C)c1c2c(c(O)c3ncccc13)C(=O)N(Cc1ccc(F)cc1)C2

# Test system: Human immunodeficiency virus
# Assay: Antiviral activity against HIV in MT2 cells in presence of 35 mg/mL human serum albumin
# Assay type: functional, organism-based
# Settings: Human immunodeficiency virus 1, MT2
row,EC50 [nM],Structure (SMILES)
1,49,O=C1c2c(c(N3CCCS3(=O)=O)c3cccnc3c2O)CN1Cc1ccc(F)cc1
2,54,O=C1c2c(c(C(=O)N3CCOCC3)c3cccnc3c2O)CN1Cc1ccc(F)cc1
3,8.4,CN(C)S(=O)(=O)N(C)c1c2c(c(O)c3ncccc13)C(=O)N(Cc1ccc(F)cc1)C2
